# Measured values taken from patent US8258122B2, “3-([1,2,4]triazolo[4,3-a]pyridin-7-yl)benzamide derivatives” (Almirall, S.A., priority 2007, dated 2012).
# Target: T1, human p38alfa (SAPKa) enzyme (Homo sapiens, UniProt Q16539)
# T1 construct: purchased University of Dundee
# Test: p38 enzymatic inhibition assay (FRET, biotinylated ATF2 substrate)
# Format: biochemical
# Settings: 1 h pre-incubation; ATF2 0.62 μM, ATP 60 μM; 25° C.; read-out: p38α IC50
# Protocol: Enzymatic activity assay was performed in 96-well microtiter plates (Corning, catalog number # 3686) using a total volume of 50 μl of an assay buffer composed of 50 mM HEPES pH 7.5, 10 mM MgCl2, 1.75 mM Na3VO4.
# Various concentrations of the test compound or vehicle controls were pre-incubated for one hour with 0.055 μg/ml of the human p38alfa (SAPKa) enzyme (obtained from University of Dundee). The reaction started by addition of biotinylated ATF2 substrate and ATP in concentrations around their Km values (final concentration 0.62 μM and 60 μM respectively) and took place for one hour at 25° C. Addition of the detection reagents, streptavidin—XL665 and anti-phosphoresidue antibody coupled to Europium cryptate, caused the juxtaposition of the cryptate and the XL665 fluorophore, resulting in fluorescence energy transfer (FRET). The FRET intensity depends on the amount of bounded cryptate antibody, which is proportional to the extent of substrate phosphorylation. FRET intensity was measured using Victor 2V spectrofluorometer.
# Data were analyzed by non-linear regression (Hill equation) to generate a dose-response curve. The calculated IC50 value is the concentration of the test compound that caused a 50% decrease in the maximal FRET intensity.
# T1 sequence (Q16539 whole entry): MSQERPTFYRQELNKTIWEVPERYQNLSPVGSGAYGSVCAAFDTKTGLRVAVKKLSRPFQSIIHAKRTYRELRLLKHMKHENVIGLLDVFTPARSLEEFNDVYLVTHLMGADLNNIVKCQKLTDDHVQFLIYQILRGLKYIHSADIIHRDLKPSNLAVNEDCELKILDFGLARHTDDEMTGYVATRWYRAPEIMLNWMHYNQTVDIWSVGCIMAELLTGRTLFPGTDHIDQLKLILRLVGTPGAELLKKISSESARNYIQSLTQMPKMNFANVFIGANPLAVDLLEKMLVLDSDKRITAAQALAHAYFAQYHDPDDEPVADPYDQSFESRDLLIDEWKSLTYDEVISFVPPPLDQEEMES
row,IC50,Compound
1,16 nM,"Cc1ccc(C(=O)NC2CC2)cc1-c1ccn2c(C(C)(C)C)nnc2c1 [Example 1, 3-(3-tert-Butyl-[1,2,4]triazolo[4,3-a]pyridin-7-yl)-N-cyclopropyl-4-methylbenzamide]"
2,46 nM,"Cc1c(F)cc(C(=O)NC2CC2)cc1-c1ccn2c(C(=O)N3CCCC3)nnc2c1 [Example 42, N-Cyclopropyl-3-fluoro-4-methyl-5-[3-(pyrrolidin-1-ylcarbonyl)[1,2,4]triazolo[4,3-a]pyridin-7-yl]benzamide]"
3,38 nM,"CO[C@@H](C)c1nnc2cc(-c3cc(C(=O)NC4CC4)ccc3C)ccn12 [Example 38, N-Cyclopropyl-3-{3-[(1S)-1-methoxyethyl][1,2,4]triazolo[4,3-a]pyridin-7-yl}-4-methylbenzamide]"
4,0.3 nM,"Cc1c(F)cc(C(=O)NC2CC2)cc1-c1ccn2c(-c3ccncc3Cl)nnc2c1 [Example 31, 3-[3-(3-Chloropyridin-4-yl)[1,2,4]triazolo[4,3-a]pyridin-7-yl]-N-cyclopropyl-5-fluoro-4-methylbenzamide]"
5,38 nM,"Cc1ccc(C(=O)NC2CC2)cc1-c1ccn2c(-c3ccncc3Cl)nnc2c1 [Example 30, 3-[3-(3-Chloropyridin-4-yl)[1,2,4]triazolo[4,3-a]pyridin-7-yl]-N-cyclopropyl-4-methylbenzamide]"
6,3.2 nM,"Cc1ccc(C(=O)NC2CC2)cc1-c1cc2nnc(C(C)(C)C)n2cc1F [Example 18, 3-(3-tert-Butyl-6-fluoro-[1,2,4]triazolo[4,3-a]pyridin-7-yl)-N-cyclopropyl-4-methylbenzamide]"
7,3.1 nM,"Cc1c(F)cc(C(=O)NC2CC2)cc1-c1ccn2c(C(C)(C)O)nnc2c1 [Example 45, N-Cyclopropyl-3-fluoro-5-[3-(1-hydroxy-1-methylethyl)[1,2,4]triazolo[4,3-a]pyridin-7-yl]-4-methylbenzamide]"
8,2 nM,"Cc1c(F)cc(C(=O)NC2CC2)cc1-c1cc2nnc(C(C)(C)C)n2cc1F [Example 19, 3-(3-tert-Butyl-6-fluoro-[1,2,4]triazolo[4,3-a]pyridin-7-yl)-N-cyclopropyl-5-fluoro-4-methylbenzamide]"
9,6 nM,"Cc1ccc(C(=O)NC2CC2)cc1-c1ccn2c(-c3ccccc3Cl)nnc2c1 [Example 6, 3-(3-(2-Chlorophenyl)-[1,2,4]triazolo[4,3-a]pyridin-7-yl)-N-cyclopropyl-4-methylbenzamide]"
10,3 nM,"Cc1c(F)cc(C(=O)NC2CC2)cc1-c1ccn2c(C(C)C)nnc2c1 [Example 28, N-cyclopropyl-3-fluoro-5-(3-isopropyl[1,2,4]triazolo[4,3-a]pyridin-7-yl)-4-methylbenzamide]"
11,15.4 nM,"Cc1c(F)cc(C(=O)NC2CC2)cc1-c1c(F)cn2c(C(C)(C)N(C)C)nnc2c1F [Example 47, N-Cyclopropyl-3-{3-[1-(dimethylamino)-1-methylethyl]-6,8-difluoro[1,2,4]triazolo-[4,3-a]pyridin-7-yl}-5-fluoro-4-methylbenzamide]"
12,30 nM,"Cc1c(F)cc(C(=O)NC2CC2)cc1-c1ccn2c(C3CCOCC3)nnc2c1 [Example 33, N-Cyclopropyl-3-fluoro-4-methyl-5-[3-(tetrahydro-2H-pyran-4-yl)[1,2,4]triazolo[4,3-a]pyridin-7-yl]benzamide]"
13,83 nM,"Cc1ccc(C(=O)NC2CC2)cc1-c1ccn2c(N3CCCC3)nnc2c1 [Example 16, N-Cyclopropyl-4-methyl-3-(3-pyrrolidin-1-yl-[1,2,4]triazolo[4,3-a]pyridin-7-yl)-benzamide]"
14,10 nM,"Cc1c(F)cc(C(=O)NC2CC2)cc1-c1c(F)cn2c(C3CC3)nnc2c1F [Example 23, N-cyclopropyl-3-(3-cyclopropyl-6,8-difluoro[1,2,4]triazolo[4,3-a]pyridin-7-yl)-5-fluoro-4-methylbenzamide]"
15,2 nM,"Cc1c(F)cc(C(=O)NC2CC2)cc1-c1ccn2c(C(C)(C)C)nnc2c1 [Example 9, 3-(3-tert-Butyl-[1,2,4]triazolo[4,3-a]pyridin-7-yl)-N-cyclopropyl-5-fluoro-4-methylbenzamide]"
16,11.9 nM,"Cc1c(F)cc(C(=O)NC2CC2)cc1-c1c(F)cn2c(C(C)(C)N)nnc2c1F [Example 46, 3-[3-(1-Amino-1-methylethyl)-6,8-difluoro[1,2,4]triazolo[4,3-a]pyridin-7-yl]-N-cyclopropyl-5-fluoro-4-methylbenzamide]"
17,75 nM,"Cc1ccc(C(=O)NC2CC2)cc1-c1ccn2c(NCC3CC3)nnc2c1 [Example 7, N-Cyclopropyl-3-(3-(cyclopropylmethylamino)-[1,2,4]triazolo[4,3-a]pyridin-7-yl)-4-methylbenzamide]"
